Experimental data: a melting point compilation (Tetko et al.; mined from patent text by program, amines drawn as free bases though some values may be those of a salt)

SMILES | melting point [°C]
CCCCn1c(=O)c(N)c(-c2cccc(OC)c2)c2cccnc21 | 138 to 141
Cc1cc2c(cc1N)C(C)(C)CCC2(C)C | 94 to 95
O=C1N[C@H]2[C@H](O)[C@H](O)[C@@H](O)[C@H](CO)[C@@H]2c2cc3c(cc21)OCO3 | > 200
CN(C(=O)OC[C@@]1(C)Cn2cc([N+](=O)[O-])nc2O1)c1ccc(Cl)cc1 | 131 to 133
NCCCP(=O)(O)Cc1ccccc1 | 69 to 72
COc1ccc(Cn2nnnc2S(=O)(=O)c2ccc(C)cc2)cc1 | 125 to 126
COc1cccc(S(=O)(=O)N(CC(N)=O)c2ccc(Cl)cc2Cc2ccccc2Cl)c1 | 65.7
CS(=O)c1nnc2n1C=Cc1cc(Cl)ccc1C2 (stereo not drawn) | 183 to 185
CC(=O)NC[C@H]1CN(c2ccc(N3CCC(n4nnc(N5CCOCC5)n4)CC3)c(F)c2)C(=O)O1 | 210 to 214
CC(C)(C)N(N)C(=O)c1ccccc1 | 124 to 125
CC(=O)Nc1ccc(S(F)(F)(F)(F)F)cc1[N+](=O)[O-] | 135 to 138
CSc1ccc(C(N)=S)cc1 | 176 to 178
CCOC(=O)C(C(=O)OCC)c1cccc2ccccc12 | 57 to 59
CCOC(=O)[C@H](CC(C)C)NC(=O)C[C@@H]1CN(CC(C)(C)CO)c2ccc(Cl)cc2[C@@H](c2cccc(OC)c2OC)O1 | 148 to 149
O=C1C=CCC(CCc2ccc(Cl)cc2Cl)O1 (stereo not drawn) | 69 to 70
COC(=O)NC1CCC(Nc2ncc3c(N)cc(=O)n(CCCO)c3n2)CC1 (stereo not drawn) | 190 to 191
CC(C)Oc1cccc(NC(=O)NCc2c(-c3ccccc3)c3cc(Cl)ccc3n2C)c1 | 218 to 220
COc1cccc(CSCCNC(=O)c2c(Cl)cccc2Cl)c1OC | 108 to 110
COCCOCCNc1ncnc2c1cnn2-c1cc(C)cc(C)c1 | 90.4
COc1cc(Nc2nc3cccc(-c4ccccc4)c3o2)cc(OC)c1OC | 182 to 185
CNc1ncn(-c2ccccc2C)c(=O)n1 | 192
Cc1cc(C)c(-c2cn(C)c3nc(NC(=O)N(C)C)n(C)c(=O)c23)c(C)c1 | 221 to 223

SMILES | melting point [°C]
Oc1ccc(C=Cc2ccncc2)cc1 | 272 to 275
Cc1nc2sccn2c(=O)c1CCN1CCC(NC(=O)c2cc(Cl)c(N)c3c2OCCC3)CC1 | 212
COc1ccccc1CN=C1C2CCN(CC2)C1C(c1ccccc1)c1ccccc1 (stereo not drawn) | 154 to 158
O=S(=O)(NCCc1ccncc1)c1ccc(Br)s1 | 133 to 134
Oc1ccc2c(c1)[C@H](O)[C@H](Cc1cccnc1)CO2 (relative stereo) | 144 to 147
CC(=O)NCc1c(C)cc(CN2CCN(c3ccc(F)cc3)CC2)cc1C | 163 to 164
CCOC(=O)Cn1c(=O)oc2c(O)cccc21 | 150 to 152
N#CCOc1ccc2cc(-c3cnc(-c4cn(Cc5ccccc5)c5ccccc45)o3)ccc2c1 | 205 to 208
COC(=O)C(C)Oc1ccc(Sc2cc(-n3nc(C)n(C(F)F)c3=O)c(Cl)cc2Cl)cc1 (stereo not drawn) | 100 to 101
CC(C)(C)OC(=O)N1C[C@@H]2C[C@H]1C(=O)N2C(C)(C)C | 167 to 168
COCn1ncc2cc(-c3nnc(SCc4ccc(OC)c(C(F)(F)F)c4)o3)ccc21 | 158 to 159
Nc1ccc(OCc2ccccn2)nn1 | 114 to 115
CC(=O)Nc1nc(C=O)c(Cc2ccccc2)s1 | 191 to 192
CC(C)OC(=O)c1cc(F)c(Cl)cc1Cl | 35
O=C1C(c2cc3c(cc2O)OCC3)c2ccc(F)cc2N1C(c1ccccc1)c1ccccc1 (stereo not drawn) | 121 to 123
CC[C@H](C)COc1ccc(-n2cc(C(=O)O)cn2)cc1C#N | 184 to 186
CCCCCCCCCCCCCCCCOCC(=O)O | 64 to 66
CC(C)Cc1c(Cl)sc2[nH]c(=O)c(=O)[nH]c12 | > 270
CC(C)c1cc(C(=O)Nc2ccc(C(=O)O)nc2)sc1C(C)C | 216 to 217
COc1cc(=O)n(-c2cccc(C(F)(F)F)c2)nc1-c1ccnn1-c1ccccc1 | 165 to 167
O=C1NCN(c2ccccc2)C12CCN(CCCC1(c3ccc(F)cc3F)OCCO1)CC2 | 58 to 62
CCOCCCOc1ccc(-c2ccc3c(c2)C=C(C(=O)OC)CCN3)cc1 | 99 to 102

SMILES | melting point [°C]
CCOC(=O)Cn1c(=O)n(Cc2ccc(Cl)c(Cl)c2)c(=O)c2c(C)c(Br)sc21 | 166 to 167
Cc1ccc(S(=O)(=O)N2C[C@@H](Cl)C[C@@H]2CCl)cc1 | 103 to 105
O=S1(=O)c2cccc3c(Cl)ccc(c23)N1CCCN1CC=C(c2ccccc2)CC1 | 135
CC(C)(C)NS(=O)(=O)Cl | 28 to 30
COCOc1cc(OC)ccc1C(=O)c1ccc(OCc2nc(-c3ccccc3)oc2C)cc1 | 119 to 120
CN(C)CC(=O)NN=Cc1c(-c2ccccc2)nn2ccccc12 | 172 to 173
O=C(Nc1ccc2cc(CN3CCCCC3)ccc2c1)c1ccc(-c2ccc(F)cc2)nc1 | 218 to 219
N#CN1CCC(C2(O)c3ccccc3CCc3ccc(F)cc32)CC1 (stereo not drawn) | 250
CN1CCC(Oc2cc(Cl)ccc2C(N)=O)C1 (stereo not drawn) | 122 to 123
CC(=O)n1ccc2cc(C(=O)NC(C)(C)C)ccc21 | 187
Cc1c(Br)cc(C(C)(C)C)c(O)c1C1=Nc2cc(Cl)ccc2S(=O)(=O)N1 | 270 to 271
CCOc1nc2ccccc2n2cc(C(=O)O)nc12 | 220 to 222
C=C(C)c1ccc(-c2ccc(C(=C)C)cc2)cc1 | 182
COC1C(O)C(CO)OC1n1cc(C)c(=O)[nH]c1=O (stereo not drawn) | 192 to 193
CCCCc1nc(SCC)c(CO)[nH]1 | 128
Cc1cc2[nH]c3c(c2cc1C)CC(N(C)C)CC3 (stereo not drawn) | 183 to 187
CCOC(=O)C(c1c(Cl)ccc(Cl)c1Cl)N(C(=O)CCl)c1ccc(Br)cc1 (stereo not drawn) | 141
CCCc1cc(OCc2ccc(C(=O)O)cc2)c2ccccc2n1 | 225 to 227
N=C(Nc1ccccc1C(F)(F)F)NC12CC3CC(CC(C3)C1)C2 | 259 to 260
Cc1c(C(=O)Nc2ccc(N3CCC(N(C)CCO)CC3)c(C#N)c2)cnn1-c1ccc(Cl)cc1 | 186

Next, values leading:

melting point [°C] | SMILES
171 to 172 | COc1cc(OC)nc(NC(=O)NS(=O)(=O)c2c3c(Cl)cccc3nn2C)n1
120 to 122 | COC(=O)c1ccc(OC)c2c(I)c(OC)ccc12
90 to 92 | CN1CCN(C2=C3CSCC34CC(=CC#N)C=CC4=NC=C2)CC1 (stereo not drawn)
83 to 85 | COc1cccc(CCNC(=O)N(C)O)c1OC
121 | CCCCCc1ccc(CCc2ccc(-c3ccc(OC(F)F)cc3)cc2)cc1
154 to 156 | COc1ccc(-n2nnnc2C(F)(F)F)cc1C1=CC2(CCCN(C(=O)c3ccccc3)C2)OC1 (stereo not drawn)
75 to 77 | FC(F)(F)c1cc(Cl)c2nc(CCl)cn2c1
182 to 183 | COc1ccc(-c2noc(C(F)F)c2-c2ccc(S(N)(=O)=O)cc2)cc1
103 to 105 | CCOC(=O)c1cc2cc(C)c(C(F)(F)F)cc2n1[C@H](C)CNC(=O)OC(C)(C)C
188 to 189 | Cc1c(SCc2ccco2)ccnc1CSc1nc2ccccc2[nH]1
132 to 135 | COC(=O)c1ccncc1OC
166 to 167 | Cc1n[nH]c(=O)c(-c2c(F)cccc2Cl)c1-c1ccc(Cl)nc1
163 to 164 | O=C(Oc1cc(OC(=O)c2cc(O)c(O)c(O)c2)c2ccccc2c1)c1cc(O)c(O)c(O)c1
67 to 68 | Cc1ccc(C(=O)Nc2ccc(CN3CCN(C)CC3)c(C(F)(F)F)c2)cc1C#Cc1ccc(NC(C)C)nn1
150 to 153 | Cc1cc(C(=O)N2Cc3ccc(C(=O)O)n3Cc3ccccc32)ccc1C1=CCCc2ccccc21
208 to 210 | CNc1ccc(Cl)c(-c2cc(=O)c3c(O)cc(O)c(C4CCN(C)C4CO)c3o2)c1 (stereo not drawn)
170 | CCN(CCCCCCN)c1ccc2c(=O)[nH][nH]c(=O)c2c1
200 | CCCC(=O)Nc1n[nH]c2cc(C(F)(F)F)ccc12
126 to 127 | CC(=O)N1CCC(C)(C)C2=C1CCc1cc(Cl)ccc12
183 to 184 | CC(C)C[C@H](NC(=O)OCC1c2ccccc2-c2ccccc21)C(=O)OC(C)(C)C

melting point [°C] | SMILES
159 to 165 | CCOc1ncc(C(=O)O)c2c(N)cccc12
110 to 111 | COc1cc(Br)c(C(C)=O)cc1O
152 to 155 | O=C([C@H]1CCCN1C(=O)Nc1ccc2ccccc2c1)N1CCc2c([nH]c3ccccc23)C1
171 to 172 | Cc1cc(C=O)cc(Oc2nc(OCc3ccccc3)nc(OCc3ccccc3)c2C(C)C)c1
171 to 173 | Brc1ccc2c(c1)N=C(N1CCN(c3ccccc3)CC1)c1cccc3c1N2CC3
280 | CC1(C)OC(=C(C#N)C#N)C(C#N)=C1c1ccc(-n2cc(-c3ccccc3)nn2)cc1
> 300 | NC(=O)NCc1cc(Cl)cc(-c2csc(N=C(N)N)n2)n1
132 to 133 | C=CCn1c(NC)nn(C(=O)Nc2ccccc2)c1=S
175 to 176 | N=C(Nc1ccccc1-c1ccccc1)N1CCC(=NO)CC1
187 to 188 | CC(C)c1ccccc1Sc1c(O)cc(-c2ccc(OCC3CCCCC3)cc2)oc1=O
88 to 92 | COC(=O)c1ccc(CN2C(=O)C3(COc4cc5c(cc43)OCCO5)c3ccccc32)o1 (stereo not drawn)
172 to 180 | CS(=O)(=O)c1nc(C(N)=O)n[nH]1
159 to 160 | OC1(c2ccc(F)cc2)N=C2SCCN2C1c1ccc(F)cc1 (stereo not drawn)
168 to 170 | Cc1cc(C#N)cn2cc(-c3cccc(Br)c3)nc12
145 to 146 | CC(=O)N1CCC(O)(c2ccccc2C)CC1
134 to 135 | CNC(=O)C(C)Oc1ncn(-c2ccccc2)n1 (stereo not drawn)
117 to 118 | CC(C)(C)OC(=O)N1CCN(CCC#N)CC1C(N)=O (stereo not drawn)
71 | CSc1ccc(CCC(C)=NO)cc1
165 | CC(=NO)c1ccc(N)c(C(=NO)c2ccccc2F)c1
